Data published in patent US20070048250A1, “Methods of treating concomitant constipation in a cancer treatment regimen including imexon” (AmpliMed Corporation, priority 2005, published 2007).

Tests used:
[1] = system: gastrointestinal transit of a charcoal meal; assay: GLP study, gastrointestinal transit of a charcoal meal in rats; assay type: in vivo; settings: intravenous, 100 mg/kg
Description: Following the unexpected identification of constipation toxicities in patients being treated with imexon in a cancer treatment regimen, a GLP (good laboratory practices) study was undertaken to evaluate the effects of imexon on the gastrointestinal transit of a charcoal meal in rats.

[2] = system: human lymphoma, melanoma, and prostate cancer cell lines; settings: mouse, in vivo; cited from earlier work
dogs = settings: numerous studies; cited from earlier work

For `N=C1NC(=O)N2CC12` (stereo not shown) [imexon, 4-imino-1,3-diazabicyclo[3.1.0]-hexan-2-one], the “effect on gastric emptying” value [1] is listed as “reduction in gastric emptying”, the “effect on gastrointestinal transit” value [1] is listed as “statistically significant inhibition of gastrointestinal transit” and the “activity against human lymphoma, melanoma, and prostate cancer cell lines in SCID mice” value [2] is listed as “active”. The “gastrointestinal lesions on pathologic examination” value (dogs) was “not shown evidence of gastrointestinal lesions”.
